# Reference: ChEMBL document CHEMBL4706583, “2-Anilinoquinoline based arylamides as broad spectrum anticancer agents with B-RAF/C-RAF kinase inhibitory effects: Design, synthesis, in vitro cell-based and oncogenic kinase assessments” (Eur J Med Chem, 2020)
# pIC50: −log10 of the molar value.
# Key:
# K562 = assay: Growth inhibition of human K562 cells measured after 48 hrs by SRB assay; type: functional
# [1] = target: RAF proto-oncogene serine/threonine-protein kinase (Homo sapiens, UniProt P04049); assay: Inhibition of human CRAF using MEK1 (K97R) as substrate in presence of [gamma-33P]ATP by scintillation counting method
# RAF proto-oncogene serine/threonine-protein kinase, sequence (P04049 whole entry): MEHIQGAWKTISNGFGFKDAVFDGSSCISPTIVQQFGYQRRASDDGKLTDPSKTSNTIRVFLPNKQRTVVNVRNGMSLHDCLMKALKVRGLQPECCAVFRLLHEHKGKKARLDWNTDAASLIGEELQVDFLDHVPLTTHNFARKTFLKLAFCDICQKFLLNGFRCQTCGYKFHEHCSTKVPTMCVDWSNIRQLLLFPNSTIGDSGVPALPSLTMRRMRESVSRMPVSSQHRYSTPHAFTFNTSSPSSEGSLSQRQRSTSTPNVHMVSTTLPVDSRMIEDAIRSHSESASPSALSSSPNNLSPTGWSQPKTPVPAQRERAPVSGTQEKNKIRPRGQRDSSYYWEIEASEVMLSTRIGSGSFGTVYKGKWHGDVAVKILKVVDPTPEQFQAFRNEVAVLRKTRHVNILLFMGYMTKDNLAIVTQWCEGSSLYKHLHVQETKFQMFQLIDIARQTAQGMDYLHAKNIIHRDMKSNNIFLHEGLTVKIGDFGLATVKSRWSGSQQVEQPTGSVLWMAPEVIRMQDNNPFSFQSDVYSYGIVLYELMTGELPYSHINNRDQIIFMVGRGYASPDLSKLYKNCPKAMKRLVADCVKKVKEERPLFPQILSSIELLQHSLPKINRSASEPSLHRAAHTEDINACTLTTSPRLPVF
# HOP-62 = assay: Growth inhibition of human HOP-62 cells measured after 48 hrs by SRB assay; type: functional
# SW-620 = assay: Growth inhibition of human SW-620 cells measured after 48 hrs by SRB assay; type: functional
# SK-OV-3 = assay: Growth inhibition of human SK-OV-3 cells measured after 48 hrs by SRB assay; type: functional
# 786-0 = assay: Growth inhibition of human 786-0 cells measured after 48 hrs by SRB assay; type: functional
# SK-MEL-5 = assay: Growth inhibition of human SK-MEL-5 cells measured after 48 hrs by SRB assay; type: functional
# UACC-257 = assay: Growth inhibition of human UACC-257 cells measured after 48 hrs by SRB assay; type: functional
# KM12 = assay: Growth inhibition of human KM12 cells measured after 48 hrs by SRB assay; type: functional
# SK-MEL-2 = assay: Growth inhibition of human SK-MEL-2 cells measured after 48 hrs by SRB assay; type: functional
# OVCAR-5 = assay: Growth inhibition of human OVCAR-5 cells measured after 48 hrs by SRB assay; type: functional
# HCT-116 [2] = assay: Induction of apoptosis in human HCT-116 cells assessed as viable cells at 2.5 uM measured after 24 hrs by Annexin-V Alexa Fluor488/propidium iodide staining based flow cytometry (reference value: 88.1%); type: functional; conditions: read-out: Activity
# HCT-116 [3] = assay: Induction of apoptosis in human HCT-116 cells assessed as early apoptotic cells at 5 uM measured after 48 hrs by Annexin-V Alexa Fluor488/propidium iodide staining based flow cytometry (reference value: 7.7%); type: functional
# [4] = Cytotoxicity against African green monkey Vero cells assessed as cell viability at 10 uM measured after 48 hrs by EZ-Cytox assay relative to control; type: cell-based; conditions: chlorocebus sabaeus, read-out: Activity
# HCT-116 [5] = assay: Induction of apoptosis in human HCT-116 cells assessed as late apoptotic cells at 5 uM measured after 24 hrs by Annexin-V Alexa Fluor488/propidium iodide staining based flow cytometry (reference value: 1%); type: functional
# U-251 = assay: Growth inhibition of human U-251 cells measured after 48 hrs by SRB assay; type: functional
# NCI/ADR-RES = assay: Growth inhibition of human NCI/ADR-RES cells measured after 48 hrs by SRB assay; type: functional
# [6] = Cytotoxicity against African green monkey Vero cells assessed as cell viability at 3 uM measured after 48 hrs by EZ-Cytox assay relative to control; type: cell-based; conditions: chlorocebus sabaeus, read-out: Activity
# SF-295 = assay: Growth inhibition of human SF-295 cells measured after 48 hrs by SRB assay; type: functional
# HCT-116 [7] = assay: Induction of apoptosis in human HCT-116 cells assessed as necrotic cells at 5 uM measured after 24 hrs by Annexin-V Alexa Fluor488/propidium iodide staining based flow cytometry (reference value: 4.6%); type: functional
# HCT-116 [8] = assay: Induction of apoptosis in human HCT-116 cells assessed as necrotic cells at 2.5 uM measured after 48 hrs by Annexin-V Alexa Fluor488/propidium iodide staining based flow cytometry (reference value: 7.7%); type: functional
# HCT-116 [9] = assay: Induction of apoptosis in human HCT-116 cells assessed as late apoptotic cells at 1.25 uM measured after 48 hrs by Annexin-V Alexa Fluor488/propidium iodide staining based flow cytometry (reference value: 2.2%); type: functional
# HT-29 = assay: Growth inhibition of human HT-29 cells measured after 48 hrs by SRB assay; type: functional
# NCI-H226 = assay: Growth inhibition of human NCI-H226 cells measured after 48 hrs by SRB assay; type: functional
# Homo sapiens = organism: Homo sapiens; assay: Selectivity ratio of IC50 for inhibition of human BRAF V600E mutant to IC50 for inhibition of human CRAF
# HCT-116 [10] = assay: Induction of apoptosis in human HCT-116 cells assessed as viable cells at 1.25 uM measured after 24 hrs by Annexin-V Alexa Fluor488/propidium iodide staining based flow cytometry (reference value: 88.1%); type: functional; conditions: read-out: Activity
# Hs-578T = assay: Growth inhibition of human Hs-578T cells measured after 48 hrs by SRB assay; type: functional
# HCT-116 [11] = assay: Induction of apoptosis in human HCT-116 cells assessed as late apoptotic cells at 2.5 uM measured after 24 hrs by Annexin-V Alexa Fluor488/propidium iodide staining based flow cytometry (reference value: 1%); type: functional
# Malme-3M = assay: Growth inhibition of human Malme-3M cells measured after 48 hrs by SRB assay; type: functional
# OVCAR-3 = assay: Growth inhibition of human OVCAR-3 cells measured after 48 hrs by SRB assay; type: functional
# RPMI-8226 = assay: Growth inhibition of human RPMI-8226 cells measured after 48 hrs by SRB assay; type: functional
# M14 = assay: Growth inhibition of human M14 cells measured after 48 hrs by SRB assay; type: functional
# HCT-116 [12] = assay: Induction of apoptosis in human HCT-116 cells assessed as late apoptotic cells at 2.5 uM measured after 48 hrs by Annexin-V Alexa Fluor488/propidium iodide staining based flow cytometry (reference value: 2.2%); type: functional
# HCT-116 [13] = assay: Induction of apoptosis in human HCT-116 cells assessed as early apoptotic cells at 2.5 uM measured after 48 hrs by Annexin-V Alexa Fluor488/propidium iodide staining based flow cytometry (reference value: 7.7%); type: functional
# [14] = Cytotoxicity against African green monkey Vero cells assessed as cell viability at 1 uM measured after 48 hrs by EZ-Cytox assay relative to control; type: cell-based; conditions: chlorocebus sabaeus, read-out: Activity
# HCT-116 [15] = assay: Induction of apoptosis in human HCT-116 cells assessed as necrotic cells at 2.5 uM measured after 24 hrs by Annexin-V Alexa Fluor488/propidium iodide staining based flow cytometry (reference value: 4.6%); type: functional
# HCT-116 [16] = assay: Induction of apoptosis in human HCT-116 cells assessed as viable cells at 1.25 uM measured after 48 hrs by Annexin-V Alexa Fluor488/propidium iodide staining based flow cytometry (reference value: 82.3%); type: functional; conditions: read-out: Activity
# LOX IMVI = assay: Growth inhibition of human LOX IMVI cells at 10 uM measured after 48 hrs by SRB assay relative to control; type: functional; conditions: read-out: GI
# SNB-75 = assay: Growth inhibition of human SNB-75 cells measured after 48 hrs by SRB assay; type: functional
# HCT-116 [17] = assay: Induction of apoptosis in human HCT-116 cells assessed as necrotic cells at 5 uM measured after 48 hrs by Annexin-V Alexa Fluor488/propidium iodide staining based flow cytometry (reference value: 7.7%); type: functional
# [18] = read-out: LC50 (the source's name)
compound,measurement,setting,value
COc1cccc2nc(Nc3cccc(NC(=O)c4ccc(N5CCN(C)CC5)c(C(F)(F)F)c4)c3)ccc12,GI50,K562,1100 nM
same,pIC50,[1],6.43
same,GI50,HOP-62,856 nM
same,GI50,SW-620,968 nM
same,GI50,SK-OV-3,1730 nM
same,GI50,786-0,923 nM
same,GI50,SK-MEL-5,1520 nM
same,GI50,UACC-257,1360 nM
same,GI50,KM12,1090 nM
same,GI50,SK-MEL-2,1360 nM
same,GI50,OVCAR-5,1530 nM
same,viability at 2.5 µM,HCT-116 [2],81.2%
same,Activity,HCT-116 [3],29.6%
same,"viability at 48 h, 10 µM",[4],77.1%
same,Activity,HCT-116 [5],2.2%
same,GI50,U-251,885 nM
same,GI50,NCI/ADR-RES,1500 nM
same,"viability at 48 h, 3 µM",[6],86.9%
same,GI50,SF-295,967 nM
same,LC50,SF-295,3820 nM
same,TGI,SF-295,1920 nM
same,Activity,HCT-116 [7],4.8%
same,Activity,HCT-116 [8],4.2%
same,Activity,HCT-116 [9],1.7%
same,GI50,HT-29,712 nM
same,TGI,HT-29,1610 nM
same,CC50,HT-29; [18],3650 nM
same,GI50,NCI-H226,2260 nM
same,Ratio IC50,Homo sapiens,2
same,viability at 1.25 µM,HCT-116 [10],82.7%
same,GI50,Hs-578T,1070 nM
same,Activity,HCT-116 [11],4.1%
same,GI50,Malme-3M,816 nM
same,LC50 (concentration killing 50% of cells),Malme-3M,3200 nM
same,TGI,Malme-3M,1620 nM
same,GI50,OVCAR-3,1210 nM
same,GI50,RPMI-8226,1650 nM
same,LC50 (concentration killing 50% of cells),RPMI-8226,> 50000 nM
same,TGI,RPMI-8226,6440 nM
same,GI50,M14,899 nM
same,TGI,M14,1950 nM
same,CC50,M14; [18],4210 nM
same,Activity,HCT-116 [12],2%
same,Activity,HCT-116 [13],14.3%
same,"viability at 48 h, 1 µM",[14],86.5%
same,Activity,HCT-116 [15],8.6%
same,viability at 1.25 µM,HCT-116 [16],81.7%
same,inhibition of growth at 10 µM,LOX IMVI,197%
same,GI50,SNB-75,695 nM
same,Activity,HCT-116 [17],3.5%
